# Source: ChEMBL document CHEMBL1201862, “PubChem BioAssay data set” (2004)
#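 48-hour exposure; five concentrations; linearly interpolated endpoints. Here, GI50 denotes the concentration required for 50% inhibition of growth.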 Calls of active or inactive are those of the source. No stated cut-off is given here; in the data, active = GI50 up to about 1.1 µM and inactive = higher.
# Assays:
# Experiment in all cases: NCI anticancer screen, dose series, 48 h
# MDA-N = test system: MDA-N
# NCI/ADR-RES = test system: NCI/ADR-RES
# OVCAR-5 = test system: OVCAR-5
# 786-0 = test system: 786-0
# MDA-MB-231 = test system: MDA-MB-231
# BT-549 = test system: BT-549
# HOP-92 = test system: HOP-92
# OVCAR-4 = test system: OVCAR-4
# CCRF-CEM = test system: CCRF-CEM
# UACC-257 = test system: UACC-257
# CAKI-1 = test system: CAKI-1
# MCF7 = test system: MCF7
# T47D = test system: T47D
# UO-31 = test system: UO-31
# SNB-75 = test system: SNB-75
# M14 = test system: M14
# OVCAR-8 = test system: OVCAR-8
# OVCAR-3 = test system: OVCAR-3
SMILES,GI50 (MDA-N),GI50 (NCI/ADR-RES),GI50 (OVCAR-5),GI50 (786-0),GI50 (MDA-MB-231),GI50 (BT-549),GI50 (HOP-92),GI50 (OVCAR-4),GI50 (CCRF-CEM),GI50 (UACC-257),GI50 (CAKI-1),GI50 (MCF7),GI50 (T47D),GI50 (UO-31),GI50 (SNB-75),GI50 (M14),GI50 (OVCAR-8),GI50 (OVCAR-3)
S=c1sscc1N1CCSc2ssc(=S)c21,> 100 µM (inactive),28.4 µM (inactive),> 100 µM (inactive),33.7 µM (inactive),30.1 µM (inactive),37 µM (inactive),8.36 µM (inactive),7.45 µM (inactive),> 100 µM (inactive),> 100 µM (inactive),> 100 µM (inactive),32.7 µM (inactive),20.8 µM (inactive),29.9 µM (inactive),14.5 µM (inactive),> 100 µM (inactive),4.66 µM (inactive),
O=C1c2ccccc2C2C1C(c1ccccc1)C1(Cc3ccccc3C1=O)C2c1ccccc1 (centres undefined),4.28 µM (inactive),> 100 µM (inactive),> 100 µM (inactive),> 100 µM (inactive),4.72 µM (inactive),> 100 µM (inactive),> 100 µM (inactive),> 100 µM (inactive),4.85 µM (inactive),> 100 µM (inactive),,> 31.7 µM (inactive),11.4 µM (inactive),> 29.8 µM (inactive),30.4 µM (inactive),> 100 µM (inactive),> 100 µM (inactive),> 100 µM (inactive)
Nc1nc(-c2ccccc2)nc2oc(-c3cccs3)nc12,> 10 µM (inactive),> 100 µM (inactive),> 100 µM (inactive),> 100 µM (inactive),> 100 µM (inactive),> 100 µM (inactive),> 100 µM (inactive),,> 100 µM (inactive),> 100 µM (inactive),> 10 µM (inactive),> 100 µM (inactive),> 100 µM (inactive),> 100 µM (inactive),> 100 µM (inactive),> 100 µM (inactive),> 100 µM (inactive),> 100 µM (inactive)
Nc1nc(-c2cccc([N+](=O)[O-])c2)cc(-c2cc(-c3cccc([N+](=O)[O-])c3)nc(N)n2)n1,> 100 µM (inactive),> 100 µM (inactive),> 100 µM (inactive),> 100 µM (inactive),> 100 µM (inactive),> 100 µM (inactive),> 100 µM (inactive),> 100 µM (inactive),,> 100 µM (inactive),> 100 µM (inactive),> 100 µM (inactive),> 100 µM (inactive),> 100 µM (inactive),,> 100 µM (inactive),> 100 µM (inactive),> 100 µM (inactive)
CC12CC(OC(=O)[C@]1(C)O)[C@@H]([C@]1(O)CC[C@H]3[C@@H]4C[C@H]5O[C@]56[C@@H](O)C=CC(=O)[C@]6(C)[C@H]4CC[C@@]31C)C2 (some centres undefined),7.21 µM (inactive),5.35 µM (inactive),11 µM (inactive),3.04 µM (inactive),5.2 µM (inactive),4.06 µM (inactive),2.92 µM (inactive),11.2 µM (inactive),1.33 µM (inactive),7 µM (inactive),9.59 µM (inactive),3.08 µM (inactive),8.02 µM (inactive),4.32 µM (inactive),,9.02 µM (inactive),3.37 µM (inactive),2.59 µM (inactive)
Oc1ccc(/C=C/c2cc(O)cc(O)c2)cc1 [RESVERATROL],50.7 µM (inactive),19.6 µM (inactive),> 100 µM (inactive),,> 100 µM (inactive),> 100 µM (inactive),> 100 µM (inactive),> 100 µM (inactive),,> 100 µM (inactive),42.2 µM (inactive),67 µM (inactive),8.65 µM (inactive),35.7 µM (inactive),95.1 µM (inactive),49.8 µM (inactive),48.8 µM (inactive),> 100 µM (inactive)
CCOC(=O)c1c(-c2ccc(Cl)cc2)c(C#N)c(=S)n(C2OC(CO)C(O)C(O)C2O)c1-c1ccccc1 (centres undefined),23 µM (inactive),46.9 µM (inactive),21.8 µM (inactive),26.7 µM (inactive),31.2 µM (inactive),29.4 µM (inactive),18.9 µM (inactive),33.5 µM (inactive),18.1 µM (inactive),27.5 µM (inactive),29.8 µM (inactive),22.3 µM (inactive),23.2 µM (inactive),38 µM (inactive),27.9 µM (inactive),19.7 µM (inactive),,21.3 µM (inactive)
Cc1c2ccccc2c(CSC(=N)N)c2ccccc12,0.175 µM (active),0.234 µM (active),0.326 µM (active),0.143 µM (active),0.276 µM (active),0.902 µM (active),0.29 µM (active),0.174 µM (active),0.0203 µM (active),0.187 µM (active),,0.104 µM (active),0.535 µM (active),0.181 µM (active),0.178 µM (active),0.211 µM (active),0.199 µM (active),0.264 µM (active)
